Test [1] addresses T1, Arid5a (Mus musculus, UniProt Q3U108).
T1 construct: Flag; expressed in transfected cells; host or cells: HEK293T
T1 sequence (Q3U108 1-590): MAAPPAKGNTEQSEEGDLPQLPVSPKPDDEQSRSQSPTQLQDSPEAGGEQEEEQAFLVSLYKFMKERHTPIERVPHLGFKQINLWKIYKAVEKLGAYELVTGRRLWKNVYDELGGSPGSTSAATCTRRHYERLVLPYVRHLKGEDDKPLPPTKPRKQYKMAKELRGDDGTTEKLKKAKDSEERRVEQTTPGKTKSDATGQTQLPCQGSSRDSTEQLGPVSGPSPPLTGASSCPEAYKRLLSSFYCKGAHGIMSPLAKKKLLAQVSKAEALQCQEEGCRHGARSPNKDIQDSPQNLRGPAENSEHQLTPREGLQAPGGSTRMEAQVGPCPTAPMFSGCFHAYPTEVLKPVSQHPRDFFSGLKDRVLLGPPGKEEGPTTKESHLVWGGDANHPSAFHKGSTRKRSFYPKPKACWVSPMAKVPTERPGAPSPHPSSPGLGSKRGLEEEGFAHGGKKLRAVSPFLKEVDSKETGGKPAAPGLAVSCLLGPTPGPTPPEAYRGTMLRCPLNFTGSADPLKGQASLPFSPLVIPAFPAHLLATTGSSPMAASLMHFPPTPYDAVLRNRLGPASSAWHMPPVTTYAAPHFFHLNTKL
In words: Luciferase assay of Arid5a stabilizing function on 3′UTR of target mRNAs in HEK293T cells. Format: cell-based. The method, then: Briefly, HEK293T cells were transfected with luciferase pGL-3 and empty pcDNA3.1 plasmids (Control), or pGL-3 plasmid encoding the 3′UTR of OX40, Il6 or Stat3, together with Arid5a-expressing pcDNA3.1 plasmid. The cells were treated with DMSO (Control and Arid5a) or POE (10-60 μM) dissolved in DMSO. The mouse Arid5a (NP_001165676.1) cDNA (WT; ENSMUST00000115032.7) was cloned in a Flag-tagged pcDNA3.1 plasmid at Xba1 and Ecor1. Renilla-expressing plasmid was used as a control. Luciferase activity from cell lysates is shown relative to Control in FIGS. 1A-1C.
HEK293 T cells (ATCC) were transfected (Lipofectamine LTX; Invitrogen) with luciferase pGL-3 and empty peDNA 3.1 plasmids (Control), or pGL-3 plasmid encoding the 3′UTR of IL6 together with Arid5a-expressing pcDNA3.1 plasmid. Renila-expressing plasmid was used as a Control. The cells were treated with DMSO (Control and Arid5a) or POE or its analogs A1-3 (40 μM; Aurora) dissolved in DMSO. The mouse Arid5a (NP_001165676.1) cDNA (WT; ENSMUST00000115032.7) was cloned in a Flag-tagged pcDNA3.1 plasmid at Xba1 and EcoR1.
To examine whether the Arid5a inhibitors interact with the target domain of Arid5a (Pocket X), substitution mutations were introduced to the wild-type (WT) Arid5a at Phe56, Tyr137 and His140 to produce mutant Arid5a (mArid5a). Mutations were introduced to substitute Phe56 with Cys, Tyr137 with Ala, and His140 with Ala. Luciferase activity from cell lysates was quantified using a Dual Luciferase kit (Promega) and the results were shown relative to the Control.

The subject of test [2] is peritoneal macrophages. Nature of the test: Cytokine secretion by LPS-stimulated peritoneal macrophages. It is filed as cell-based, mice. Conditions: 40 μM, LPS 0.5 μg/mL 24 h, compared to LPS alone. The method, then:
(§1) The peritoneal macrophages were stimulated in vitro with 0.5 μg/mL lipopolysaccharides (LPS) (Sigma-Aldrich) for 24 h. The CD4^+ CD62L^+ T cells were isolated and purified from spleen using the MACS isolation kit (Miltenyi). The T cells were cultured in the presence of anti-CD3/CD28 dynabeads (Invitrogen), recombinant mouse IL-6 (30 ng/mL; R&D Systems), recombinant transforming growth factor-β (TGF-β) (4 ng/mL; R&D Systems), anti-interferon-γ (IFN-γ) and anti-IL-4 (10 μg/mL; Biolegend) for 72 h to generate Th17 cells.
The mRNAs and cytokines were quantified as follows. A first strand of cDNA was synthesized from total RNA by using the TaqMan reverse transcription kit. […] The relative expression of mRNAs was calculated by ΔΔCt method. For cytokines quantification in serum and cell culture supernatants, ELISA kits of IL-17a, IL-6, TNF-α (Invitrogen) were used following the manufacturer's instructions.
The anti-inflammatory activity of the Arid5a inhibitor POE was tested in vitro by measuring secretion of pro-inflammatory cytokines by macrophages and differentiated Th17 cells. […] The percentage of CD4^+OX40^+ T cells in the polarized Th17 cells was determined using flow cytometry; the results are shown in FIG. 3D. […]

Test [3] concerns differentiated Th17 cells. Nature of the test: Th17 differentiation of naïve CD4+CD62L+ T cells. It is filed as cell-based, mice. As to conditions: 40 μM, 72 h. The procedure: as §1
The mRNAs and cytokines were quantified as follows. A first strand of cDNA was synthesized from total RNA by using the TaqMan reverse transcription kit. The cDNA was amplified in the real-time PCR system ViiA7 using TaqMan gene expression assays of OX40 (Mm01261022_m1), Stat3 (Mm01219775_m1) and the endogenous control Gapdh (Mm99999915_g1). Kits, probes and reagents were from Applied Biosystems. The relative expression of mRNAs was calculated by ΔΔCt method. For cytokines quantification in serum and cell culture supernatants, ELISA kits of IL-17a, IL-6, TNF-α (Invitrogen) were used following the manufacturer's instructions.
Flow cytometry analysis was conducted using CD4^+ T cells cultured under Th17 cell-inducing conditions or CD4^+ T cells derived from CNS, which were fixed and stained with Per-CP-Cy5.5-conjugated anti-CD4 antibodies and PE-conjugated anti-OX40 antibodies (Biolegend). Analysis was carried out using Flowsight (Amnis).
The anti-inflammatory activity of the Arid5a inhibitor POE was tested in vitro by measuring secretion of pro-inflammatory cytokines by macrophages and differentiated Th17 cells. Briefly, peritoneal macrophages were stimulated with LPS (0.5 μg/mL) for 24 h in presence or absence of POE (40 μM). […] The percentage of CD4^+OX40^+ T cells in the polarized Th17 cells was determined using flow cytometry; the results are shown in FIG. 3D. Stat3 mRNA expression in the polarized Th17 cells was quantified by real-time PCR and normalized to Gapdh mRNA; the results are shown relative to those of untreated Th17 cells in FIG. 3E.

For test [4], the target named is T2, Arid5a binding to OX40 ADE-like stem loop (Mus musculus, UniProt Q3U108).
T2 construct: expressed in transfected cells; host or cells: HEK293T (cell lysate)
T2 sequence (Q3U108 1-590): T1 sequence (Q3U108 1-590)
In words: RNA-Arid5a binding assay. As to conditions: Flag-Arid5a-enriched HEK293T lysate, immunoblot, FIG. 4. The procedure: An RNA-protein binding assay was performed to confirm that POE inhibits the physical binding of Arid5a to the (ADE)-like stem loop in the OX40 3′UTR. Briefly, a 3′-biotinylated OX40 ADE-like stem loop (RNA; 5′-[…]-3′) (SEQ ID NO: 2) was conjugated to streptavidin beads. The OX40 ADE-like stem loop/streptavidin bead conjugate was then mixed with Flag-Arid5a-enriched HEK293T cell lysate, washed, and proteins bound to RNA were eluted for immunoblot. Anti-Flag antibodies were used to detect Flag-Arid5a in the eluate by SDS-PAGE analysis.
In general terms: A western blot detects proteins with antibodies after separation by electrophoresis.

Molecules are shown by their SMILES.

With `O=C(CSc1nnc(-c2ccncc2)o1)c1ccccc1` [POE, 1-Phenyl-2-(5-pyridin-4-yl-[1,3,4]oxadiazol-2-ylsulfanyl)-ethanone], the “Arid5a stabilizing function on Il6 3′UTR (luciferase activity relative to Control)” value in test [1] (40 μM, HEK293 T cells, WT Arid5a, FIG. 6) is listed as “abolished the stabilizing function of Arid5a”. Besides, in test [1] (POE 10-60 μM, HEK293T cells, FIG. 1A), the “Arid5a stabilizing function on the OX40 3′UTR (luciferase activity relative to Control)” value is “inhibits Arid5a stabilizing function”. Moreover, in test [1] (POE 10-60 μM, HEK293T cells, FIG. 1B), the “Arid5a stabilizing function on the Il6 3′UTR (luciferase activity relative to Control)” value is “inhibits Arid5a stabilizing function”. Further, in test [1] (POE 10-60 μM, HEK293T cells, FIG. 1C), the “Arid5a stabilizing function on the Stat3 3′UTR (luciferase activity relative to Control)” value is “inhibits Arid5a stabilizing function”. Moreover, the “Level of IL-6 in cell culture supernatant” value in test [2] (FIG. 3A) was “reduces the level of IL-6”. The “Level of TNF-α in cell culture supernatant” value in test [2] (FIG. 3B) is “does not affect the level of TNF-α”. Also, the “Level of IL-17 in cell culture supernatant of polarized Th17 cells” value in test [3] (compared to untreated Th17 cells, FIG. 3C) is reported as “reduces the level of IL-17”. In addition, the “Frequency of CD4+OX40+ T cells in polarized Th17 cells” value in test [3] (flow cytometry, FIG. 3D) is “reduces the frequency of CD4^+OX40^+ T cells”. Further, the “Expression of Stat3 mRNA in polarized Th17 cells” value in test [3] (real-time PCR normalized to Gapdh, FIG. 3E) is listed as “reduces the expression of Stat3 mRNA”. Further, in test [4], the “Physical binding of Arid5a to OX40 ADE-like stem loop” value is reported as “inhibited the physical binding of Arid5a to OX40 ADE-like stem loop in a concentration-dependent manner”.

The values above are taken from US11654138B2, “Therapeutic agents for treating and preventing autoimmune diseases and cancer and a screening method” (KING FAISAL UNIVERSITY, priority 2019, dated 2023).
